This is an account of results in patent US12527779B2, “Prostaglandin E2 (PGE2) EP4 receptor antagonists” (Domain Therapeutics, priority 2019, dated 2026).

The experiment has as its target T1, human EP4 (hEP4) receptor (Homo sapiens, UniProt P35408).
T1 construct: expressed in transfected cells; host or cells: HEK-293 T cells, transient co-transfection with polyethylenimine
Nature of the experiment: In vitro human EP4 functional antagonist activity using BRET biosensors (cAMP EPAC biosensor, TCS2510 stimulation). It is filed as cell-based. The settings on record: antagonist activity vs EC60 TCS2510, hEP4 in HEK-293 T cells. The method, boiled down:
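HEK-293T cells transiently co-transfected with hEP4 and EPAC cAMP BRET biosensor (luciferase/GFP), assayed 48 h later in HEPES-buffered saline after 1 h at 22 °C. After 5 min with compound, cells stimulated with EC60 TCS2510 and BRET read for 10 min; IC50 from 10-point, 4.5-log variable-slope fits, duplicate, two experiments.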
For orientation: BRET reads energy transfer from a luciferase to a nearby fluorophore.

Where a name gives a salt, the structure may show the parent alone. Bounds are passed on as bounds.

T1 sequence (P35408 whole entry): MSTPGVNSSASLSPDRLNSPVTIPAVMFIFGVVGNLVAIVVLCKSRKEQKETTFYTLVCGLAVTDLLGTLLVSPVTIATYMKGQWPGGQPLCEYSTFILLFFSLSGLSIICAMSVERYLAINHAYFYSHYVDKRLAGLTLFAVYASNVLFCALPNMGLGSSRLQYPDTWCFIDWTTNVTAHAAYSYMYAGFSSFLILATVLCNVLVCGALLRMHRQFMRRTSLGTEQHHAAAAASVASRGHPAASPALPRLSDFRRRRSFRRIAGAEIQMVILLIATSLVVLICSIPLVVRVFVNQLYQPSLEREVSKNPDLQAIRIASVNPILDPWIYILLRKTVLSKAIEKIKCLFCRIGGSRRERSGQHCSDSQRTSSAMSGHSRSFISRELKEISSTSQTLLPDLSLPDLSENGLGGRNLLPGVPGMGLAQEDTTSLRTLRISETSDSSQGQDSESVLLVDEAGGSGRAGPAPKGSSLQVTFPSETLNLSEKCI

On to `C[C@H](NC(=O)C1(NCCOc2cccc(Cl)c2)CCOCC1)c1ccc(C(=O)O)cc1` [Example 8, 4-[(1S)-1-[[4-[2-(3-Chlorophenoxy)ethylamino]tetrahydropyran-4-carbonyl]amino]ethyl]benzoic acid, hydrochloride], for which the IC50 (as a rule, the point on the concentration scale where inhibition reaches its midpoint) was below 100 nM. Next, `C[C@H](NC(=O)C1(N2CC[C@@H](Oc3cccc(C(F)(F)F)c3)C2)CCOCC1)c1ccc(S(C)(=N)=O)cc1` (stereo partly drawn) [Example 180, N-((1S)-1-(4-(S-Methylsulfonimidoyl)phenyl)ethyl)-4-((R)-3-(3-(trifluoromethyl)phenoxy)pyrrolidin-1-yl)tetrahydro-2H-pyran-4-carboxamide, hydrochloride]: below 100 nM. On to `C[C@H](NC(=O)C1(N2CC[C@@H](Oc3ccccc3)C2)CCOCC1)c1ccc(C(=O)O)cc1` [Example 152, 4-[(1S)-1-[[4-((3R)-3-Phenoxypyrrolidin-1-yl)tetrahydropyran-4-carbonyl]amino]ethyl]benzoic acid, hydrochloride], for which the IC50 is below 100 nM. As for `C[C@H](NC(=O)C1(N2CCC[C@@H](Oc3cccc(Cl)c3)C2)CCOCC1)c1ccc(C(=O)O)cc1` [Example 136, 4-[(1S)-1-[[4-[(3R)-3-(3-Chlorophenoxy)-1-piperidyl]tetrahydropyran-4-carbonyl]amino]ethyl]benzoic acid, hydrochloride], the figure is below 100 nM.

The compound `C[C@H](NC(=O)C1(N(C)CCOc2ccccc2)CCOCC1)c1ccc(C(=O)O)cc1` [Example 2, 4-[(1S)-1-[[4-[Methyl(2-phenoxyethyl)amino]tetrahydropyran-4-carbonyl]amino]ethyl]benzoic acid, hydrochloride] yielded a 50% inhibitory concentration (IC50) below 100 nM. `C[C@H](NC(=O)C1(c2cccc(OCc3ccccc3)c2)CCOCC1)c1ccc(C(=O)O)cc1` [Example 99, 4-[(1S)-1-[[4-(3-Benzyloxyphenyl)tetrahydropyran-4-carbonyl]amino]ethyl]benzoic acid] registered a 50% inhibitory concentration (IC50) below 1000 nM.

`C[C@H](NC(=O)C(C)(C)N1CC[C@@H](Oc2cccc(Cl)c2)C1)c1ccc(C(N)=O)cc1` [Example 174, hydrochloride]: the IC50 is below 100 nM. Next, `C[C@H](NC(=O)C1(NCCOc2cccc(Cl)c2)CCCC1)c1ccc(C(=O)O)cc1` [Example 63, 4-[(1S)-1-[[1-[2-(3-Chlorophenoxy)ethylamino]cyclopentanecarbonyl]amino]ethyl]benzoic acid, hydrochloride]: below 100 nM. Next, `C[C@H](NC(=O)C1(N2CC[C@@H](Oc3cccc(C(F)(F)F)c3)C2)CCC(F)(F)CC1)c1ccc(C(=O)O)cc1` [Example 163, 4-[(1S)-1-[[1-[(3R)-3-[3-(Trifluoromethyl)phenoxy]pyrrolidin-1-yl]-4,4-difluorocyclohexane-1-carbonyl]amino]ethyl]benzoic acid, hydrochloride]: below 100 nM; `O=C(O)c1ccc(C2(NC(=O)C3(N4CC[C@@H](Oc5cccc(C(F)(F)F)c5)C4)CCOCC3)CC2)cc1` [Example 145, 4-[1-[[4-[(3R)-3-[3-(Trifluoromethyl)phenoxy]pyrrolidin-1-yl]tetrahydropyran-4-carbonyl]amino]cyclopropyl]benzoic acid, hydrochloride]: below 100 nM. Take `CCN(CCOc1cccc(Cl)c1)C1(C(=O)N[C@@H](C)c2ccc(C(=O)O)cc2)CCOCC1` [Example 10, 4-[(1S)-1-[[4-[2-(3-Chlorophenoxy)ethyl-ethyl-amino]tetrahydropyran-4-carbonyl]amino]ethyl]benzoic acid, hydrochloride]: the IC50 was below 100 nM. In turn, `C[C@H](NC(=O)C(C)(C)N1CC[C@@H](Oc2cccc(C(F)(F)F)c2)C1)c1ccc(S(C)(=N)=O)cc1` (stereo partly drawn) [Example 205, 2-Methyl-N-((1S)-1-(4-(S-methylsulfonimidoyl)phenyl)ethyl)-2-((R)-3-(3-(trifluoromethyl)phenoxy)pyrrolidin-1-yl)propanamide, hydrochloride] returned a 50% inhibitory concentration (IC50) below 100 nM.
